According to patent publication US7977474B2, “Uses of porphyrin compounds” (Destiny Pharma Ltd., priority 2004, dated 2011):
Read-outs that look alike come from different tables or passages of the source.

Key:
[1] = test system: Staphylococcus aureus (methicillin resistant); assay: MIC (IsoSensitest broth) and MBC (subculture on blood agar), reference strains and clinical isolates (Example C); format: cell-based
Protocol: (§1) The Minimum Inhibitory Concentrations (MIC's) for Compound 10, over a range of reference strains and clinical isolates, were determined using IsoSensitest® broth and Minimum Bactericidal concentrations (MBC's) determined by subculture onto Columbia blood agar.
(§2) • 1. A 5 mg/ml stock solution of Compound 10 was made up in water • 2. A series of dilutions were undertaken to produce a range of concentrations between 32-0.001 mg/L • 3. The test microorganisms were grown up overnight in IsoSensitest® broth • 4. The cultures were then diluted with fresh broth to a final concentration of 10^4 organisms/ml and placed on a shaker for 90 minutes at 37° C. • 5. 90 μl of the broth culture containing the microorganisms were transferred to each of 12 wells in a row in a microtitre tray and repeated in a control tray—four organisms per tray. • 6. 90 μL of the appropriate Compound 10 dilution was then added to each well containing organisms to give a final dilution series from 16 mg/L to 0.0005 mg/L • 7. The solutions were mixed well and incubated in the dark for 24 hours • 8. […] The MBC values were recorded after overnight incubation of the subcultures. • 10. Controls of uninoculated broth and broth plus inoculum were undertaken for each organism in each tray Results

[2] = test system: normal human epidermal keratinocytes (NHEK); assay: Toxicity against human skin cells, MTT-assay (Example D); format: cell-based; conditions: 0.01-10 μM, 5 min, 1 h and 4 h incubation, then 24 h in the dark
Protocol: (§3) NHEK were incubated with different concentrations of Compound 10 for 5 min, 1 h and 4 h (0 μM, 0.01 μM, 0.1 μM, 1.0 μM, 10 μM). Cells were then incubated for 24 h in the dark. Toxicity was tested by standard MTT-assay. Cell viability was normalised to one, which means, the values of control cells were normalised to one. Red dotted line: 5 min incubation; black dotted: 1 h incubation; blue dotted: 4 h incubation only; (n=3, mean±SD).
(§4) Test compounds were screened for toxicity against cultured human skin cells using normal human epidermal keratinoctes (NHEK) and normal human dermal fibroblasts (NHDF), purchased from CellSystems Biotechnologie GmbH, Germany.
(§5) The NHEK and NHDF cells were used between passages 3 and 10. The cells were seeded with 7.5 and/or 15×10^4 cells/well (microtitre plate) and were allowed to attach overnight in an incubator (37° C., 5% CO2). After incubation with different concentrations of the selected photosensitisers for various times, the cells were incubated for 24 hours in the dark.
(§6) Toxicity was tested by standard MTT-assay (Mossman et al., 1983 J. Immunological Methods 65: 55-63). MTT is an indicator of metabolically active cells. Dependent on enzyme activity in mitochondria a colour reaction can be visualised, which can be measured by ELISA reader (540 nm). […]

[3] = test system: normal human dermal fibroblasts (NHDF); assay: as above; format: cell-based; conditions: 0.01-10 μM, 5 min, 1 h and 4 h incubation, then 24 h in the dark
Protocol: as §3, with “NHDF” for “NHEK”, “Grey” for “Red”, “black line:” for “blue dotted:”, “incubation;” for “incubation only;”
as §4, §5, §6

[4] = test system: Staphylococcus aureus BAA-44, a multi-drug resistant Methicillin Resistant Staphylococcus aureus (MRSA) strain; assay: MIC and MBC of Compound 10 in the absence of light (Example B); format: cell-based
Description: The minimum inhibitory concentration (MIC) for an antimicrobial agent against a specific microorganism is defined as the minimum concentration of an antibacterial agent where no apparent visible growth of the organism is observed (FDA definition of Minimum Inhibitory Concentration). MIC's are typically determined using concentrations derived traditionally from serial twofold dilutions (National Committee for Clinical Laboratory Standards (NCCLS) Handbook M7-A5: “Methods for Dilution Antimicrobial Susceptibility Tests for Bacteria that Grow Aerobically; Approved Standard—5th Edition” Volume 20 Number 2. January 2000). The MIC for Compound 10 in the absence of light was investigated, using a protocol based on the MIC protocol produced by the NCCLS (National Committee for Clinical Laboratory Standards (NCCLS) Handbook M7-A5, supra).
Staphylococcus aureus BAA-44, a multi-drug resistant Methicillin Resistant Staphylococcus aureus (MRSA) strain obtained from the ATCC catalogue, was used in this study. The following concentrations of Compound 10 were investigated: 0.764; 0.382: 0.191; 0.0955; 0.0478; 0.0239, 0.0119, 0.00597, 0.00298, 0.00149, 0.00075 & 0.00037 μg/mL. Stock solutions were made up in distilled water and serial dilutions undertaken of this to produce the required concentrations immediately prior to use.
At least 3 to 5 well-isolated colonies of the same morphological type were selected from an agar plate culture and the growth transferred to a tube containing 100 mL of Isosensitest Broth and the broth culture is incubated at 37° C. overnight. The culture was then be diluted to a final density of 10^4 cells/mL with fresh Isosensitest Broth and incubated with shaking at 37° C. until the cells entered exponential growth.
0.09 mL of the adjusted inoculum was transferred into each of 24 wells of a polystyrene 96 well microtiter plate. A control well of bacteria alone in the presence of growth medium alone was included (as a positive control).
0.09 mL of the Compound 10 stock solutions from the dilution series were pipetted into the relevant well for the microtiter plates and incubated in the dark at 37° C. and the plates examined after 24 hours incubation to determine the turbidity in each well.

Enterococcus faecalis = assay: MIC and MBC, reference strains and clinical isolates (Example C); format: cell-based
Protocol: as §1, §2

[5] = test system: Staphylococcus aureus (methicillin sensitive); assay: as above; format: cell-based
Protocol: as §1, §2

[6] = test system: Staphylococcus epidermidis (methicillin sensitive); assay: as above; format: cell-based; conditions: 37453, clinical isolate
Protocol: as §1, §2

Enterococcus faecium = assay: as above; format: cell-based
Protocol: as §1, §2

[7] = test system: Staphylococcus epidermidis (methicillin resistant); assay: as above; format: cell-based; conditions: for MIC: Staphylococcus epidermidis, dark 24 hours
Protocol: as §1, §2

[8] = Acute dermal toxicity test (OECD 402) (Example G); format: in vivo; conditions: 3.2 mM in a topical formulation
Protocol: Compound 10 was tested at 3.2 mM in a topical formulation in a standard acute dermal toxicity test to determine if any clinical or histological toxicity for the compound could be detected.
The acute toxicity protocol was based on OECD Guidelines for the testing of chemicals/Section 4—Health Effects Test Number 402: Acute Dermal Toxicity.

Escherichia coli = conditions: visible light after incubation; Valduga et al., 1999; cited from earlier work

## C[N+](C)(C)CCCOc1ccc(-c2c3nc(cc4ccc([nH]4)c(-c4ccc(OCCC[N+](C)(C)C)cc4)c4nc(cc5ccc2[nH]5)C=C4)C=C3)cc1 [Compound 10, 5,15-bis-[4-(3-Trimethylammonio-propyloxy)-phenyl]-porphyrin dichloride]
[1]; 24 h, EMRSA-16, clinical isolate, dark 24 hours
  MIC: 0.5 mg/L
[1]; ATCCBAA44, 24 h, ATCC BAA-44 Experiment 1, dark 24 hours
  MIC: 0.5 mg/L
[1]; ATCCBAA44, 24 h, ATCC BAA-44 Experiment 2, dark 24 hours
  MIC: 0.5 mg/L
[1]; ATCCBAA44, 24 h, ATCC BAA-44 Experiment 3, dark 24 hours
  MIC: 2 mg/L
[1]; ATCCBAA44, 24 h, ATCC BAA-44 Experiment 4, dark 24 hours
  MIC: 0.5 mg/L
[1]; ATCCBAA44, 24 h, ATCC BAA-44 Experiment 5, dark 24 hours
  MIC: 0.5 mg/L
[1]; ATCCBAA44, 24 h, ATCC BAA-44 Experiment 6, dark 24 hours
  MIC: 0.5 mg/L
[1]; ATCCBAA44, ATCC BAA-44 Experiment 1
  MBC: 0.5 mg/L
[1]; ATCCBAA44, ATCC BAA-44 Experiment 2
  MBC: 1 mg/L
[1]; ATCCBAA44, ATCC BAA-44 Experiment 3
  MBC: 2 mg/L
[1]; ATCCBAA44, ATCC BAA-44 Experiment 4
  MBC: 1 mg/L
[1]; ATCCBAA44, ATCC BAA-44 Experiment 5
  MBC: > 1 mg/L
[1]; ATCCBAA44, ATCC BAA-44 Experiment 6
  MBC: 1 mg/L
[1]; EMRSA-15, clinical isolate
  MBC: 1 mg/L
[1]; EMRSA-16, clinical isolate
  MBC: 0.5 mg/L
[1]; NCTC11939, 24 h, NCTC 11939 (EMRSA-1), dark 24 hours
  MIC: 0.5 mg/L
[1]; NCTC11939, NCTC 11939 (EMRSA-1)
  MBC: 0.5 mg/L
[2]
  innate toxicity (MTT cell viability): does not demonstrate an innate toxicity
[3]
  innate toxicity (MTT cell viability): does not demonstrate an innate toxicity
[4]; Series 2, dark
  MIC: 0.0955 mg/L
[4]; Staphylococcus aureus, Series 1, dark, read-out: MIC
  MIC: 0.0955 mg/L
[4]; Staphylococcus aureus, absence of light
  MBC: 0.382 mg/L
[4]; Staphylococcus aureus, absence of light, 24 hours incubation at 37° C., read-out: MIC
  MIC: 0.0955 mg/L
Enterococcus faecalis; ATCC29212, ATCC 29212
  MBC: > 1 mg/L
Enterococcus faecalis; E3, clinical isolate
  MBC: 1 mg/L
Enterococcus faecalis; E3, clinical isolate, dark 24 hours
  MIC: 0.5 mg/L
Enterococcus faecalis; E4, clinical isolate
  MBC: 0.5 mg/L
Enterococcus faecalis; E10, clinical isolate
  MBC: 1 mg/L
Enterococcus faecalis; E37, clinical isolate
  MBC: 1 mg/L
[5]; ATCC25923, ATCC 25923
  MBC: 1 mg/L
[5]; ATCC25923, ATCC 25923, dark 24 hours
  MIC: 0.5 mg/L
[5]; NCTC6571, NCTC 6571
  MBC: 0.5 mg/L
[5]; NCTC6571, NCTC 6571, dark 24 hours
  MIC: 0.5 mg/L
[6]
  MBC: 0.5 mg/L
[6]; dark 24 hours
  MIC: 0.5 mg/L
Enterococcus faecium; E1, clinical isolate
  MBC: 1 mg/L
Enterococcus faecium; E1, clinical isolate, dark 24 hours
  MIC: 0.5 mg/L
Enterococcus faecium; E5, clinical isolate
  MBC: 1 mg/L
Enterococcus faecium; E19, clinical isolate
  MBC: 0.5 mg/L
Enterococcus faecium; E44, clinical isolate
  MBC: 0.5 mg/L
Enterococcus faecium; NCTC12204, NCTC 12204
  MBC: 1 mg/L
[7]; Staphylococcus epidermidis, 33659, clinical isolate
  MBC: 1 mg/L
[7]; Staphylococcus epidermidis, 33759, clinical isolate
  MBC: 1 mg/L
[7]; Staphylococcus epidermidis, 36572, clinical isolate
  MBC: 0.25 mg/L
[7]; Staphylococcus epidermidis, 38808, clinical isolate
  MBC: 0.5 mg/L
[7]; 24 h, 33659, clinical isolate
  MIC: 0.5 mg/L
[7]; 24 h, 33759, clinical isolate
  MIC: 0.5 mg/L
[7]; 24 h, 36572, clinical isolate
  MIC: 0.25 mg/L
[7]; 24 h, 38808, clinical isolate
  MIC: 0.5 mg/L
[8]
  histological toxicology of major organs: No histological toxicology of any major organ (including the skin) was observed
[8]; dermal
  acute toxic effect: does not result in any acute toxic effect
[8]; clinical, macroscopic and microscopic observation
  clinical toxicology: no clinical toxicology was observed

## C[n+]1ccc(-c2c3nc(c(-c4cc[n+](C)cc4)c4ccc([nH]4)c(-c4cc[n+](C)cc4)c4nc(c(-c5cc[n+](C)cc5)c5ccc2[nH]5)C=C4)C=C3)cc1 [Compound T4MPyP, 5,10,15,20-tetrakis-(4-N-methylpyridyl)-porphine]
Escherichia coli
  inactivation of Escherichia coli: efficiently inactivated
